Laboratory results published in patent publication US20250127863A1, “ANTIMICROBIAL PEPTIDE FOR ONYCHOMYCOSIS” (CBMR SCIENTIFIC NANOSCIENCE B.V., priority 2019, published 2025).
No end group written: not given here.

Experiments:
Assay in all cases: MIC90 growth inhibition
Format in all cases: cell-based
[1] = tested on: Saccharomyces cerivisiae CMC-520; conditions: RPMI 1640 one-fourth strength
Experimental: (§1) The minimum inhibitory concentration (MIC) value is defined as the lowest sample concentration that inhibited growth. In the Examples, the MIC90 value is presented, which MIC90 values are determined according to established methods known to the person with the skills in the relevant art. Experiments; 1×10E5 CFU of various strains/ml were incubated for 24-48 h at 37° C. in 4× diluted medium of RPMI 1640 with the indicated concentrations of antimicrobial peptide hLF(1-11) [SEQ ID NO: 3]. As controls various strains cells were incubated for 24-48 h at 37° C. with no agent (antimicrobial peptide), and subsequently, growth of the microbial organism (e.g. yeast, bacterium) was monitored by using spectrophotometry with a spectrophotometer at 620 nm. […] ND=Not done. Representative single assay data are listed rather than a range, for clarity reasons and for ease of comparison of peptide efficacy. The MIC was calculated as the lowest antibiotic (antimicrobial peptide) concentration at which growth of the assessed yeast or bacterium (microbe) was inhibited (inhibitory concentration IC90).

Cladosporium trichoides = conditions: RPMI 1640 one-fourth strength
Experimental: as §1

Sporotrichium spp = conditions: RPMI 1640 one-fourth strength
Experimental: as §1

[2] = tested on: Trichophyton interdigitale; conditions: RPMI 1640 one-fourth strength
Experimental: as §1

[3] = tested on: Streptocococcus mitis 032; conditions: RPMI 1640 one-fourth strength
Experimental: as §1

Rhizopus spp = conditions: RPMI 1640 one-fourth strength
Experimental: as §1

[4] = tested on: Saccharomyces cerivisiae ATCC 2601; conditions: RPMI 1640 one-fourth strength
Experimental: as §1

Aspergillus nidulans = conditions: RPMI 1640 one-fourth strength
Experimental: as §1

Proteus spp = conditions: RPMI 1640 one-fourth strength
Experimental: as §1

[5] = tested on: Streptocococcus mitis 033; conditions: RPMI 1640 one-fourth strength
Experimental: as §1

Fusarium solani = conditions: RPMI 1640 one-fourth strength
Experimental: as §1

[6] = tested on: Staphylococcus aureus 10649; conditions: RPMI 1640 one-fourth strength
Experimental: as §1

[7] = tested on: Malassezia pachydermatis CBS 1880; conditions: RPMI 1640 one-fourth strength
Experimental: as §1

Cryptococcus gattii = conditions: RPMI 1640 one-fourth strength
Experimental: as §1

Pichia membramfaciens = conditions: RPMI 1640 one-fourth strength
Experimental: as §1

Mycobacterium avium = conditions: RPMI 1640 one-fourth strength
Experimental: as §1

Exophiala dermatitidis = conditions: RPMI 1640 one-fourth strength
Experimental: as §1

[8] = tested on: M. guilliermondii CBS-2030 (Perugia); conditions: RPMI 1640 one-fourth strength
Experimental: as §1

Trichophyton rubrum = conditions: RPMI 1640 one-fourth strength
Experimental: as §1

Torula spp = conditions: RPMI 1640 one-fourth strength
Experimental: as §1

[9] = tested on: Malassezia furfur CBS 14141; conditions: RPMI 1640 one-fourth strength
Experimental: as §1

Penicillium digitatum = conditions: RPMI 1640 one-fourth strength
Experimental: as §1

[10] = tested on: Staphylococcus aureus (MRSA); conditions: RPMI 1640 one-fourth strength
Experimental: as §1

Trichophyton violaceum = conditions: RPMI 1640 one-fourth strength
Experimental: as §1

Cryptococcus neoformans = conditions: RPMI 1640 one-fourth strength
Experimental: as §1

Moraxella catarrhalis = conditions: RPMI 1640 one-fourth strength
Experimental: as §1

[11] = tested on: Malassezia furfur CBS 7019; conditions: RPMI 1640 one-fourth strength
Experimental: as §1

Phialophora verrucosa = conditions: RPMI 1640 one-fourth strength
Experimental: as §1

[12] = tested on: Cryptococcus neoformans ▴ SKN7 (UMC); conditions: genetically modified type species, RPMI 1640 one-fourth strength
Experimental: as §1

[13] = tested on: Paracoccidioides brasiliensis; conditions: RPMI 1640 one-fourth strength
Experimental: as §1

[14] = tested on: Malassezia furfur CBS-4172; conditions: RPMI 1640 one-fourth strength
Experimental: as §1

Zygosaccharomyces bailii = conditions: RPMI 1640 one-fourth strength
Experimental: as §1

[15] = tested on: Saccharomyces cerevisiae spp; conditions: RPMI 1640 one-fourth strength
Experimental: as §1

[16] = tested on: Malassezia restricta CBS 7877; conditions: RPMI 1640 one-fourth strength
Experimental: as §1

Cryptococcus albidus = conditions: RPMI 1640 one-fourth strength
Experimental: as §1

Trichosporon beigelii = conditions: RPMI 1640 one-fourth strength
Experimental: as §1

Geotrichium spp = conditions: RPMI 1640 one-fourth strength
Experimental: as §1

Penicillium pinophilum = conditions: RPMI 1640 one-fourth strength
Experimental: as §1

Fusarium oxysporum = conditions: RPMI 1640 one-fourth strength
Experimental: as §1

[17] = tested on: Zygosaccharomyces bisprous; conditions: RPMI 1640 one-fourth strength
Experimental: as §1

Dekkera bruxellensis = conditions: RPMI 1640 one-fourth strength
Experimental: as §1

Streptococcus mutans = conditions: RPMI 1640 one-fourth strength
Experimental: as §1

Trichophyton spp = Trichophyton spp (Table 1); RPMI 1640 one-fourth strength
Experimental: as §1

Entrobacter cloacae = conditions: RPMI 1640 one-fourth strength
Experimental: as §1

GRRRRSVQWCA [hLF1-11, Gly Arg Arg Arg Arg Ser Val Gln Trp Cys Ala]
Inhibitory concentration MIC (MIC90) [1]: MIC = 50 μg/ml | Inhibitory concentration MIC (MIC90) (Cladosporium trichoides): MIC = 5 μg/ml | Inhibitory concentration MIC (MIC90) (Sporotrichium spp): MIC = 40 μg/ml | Inhibitory concentration MIC (MIC90) [2]: MIC = 6.3-45 μg/ml | Inhibitory concentration MIC (MIC90) [3]: MIC = 6.3 μg/ml | Inhibitory concentration MIC (MIC90) (Rhizopus spp): MIC = 25 μg/mL | Inhibitory concentration MIC (MIC90) [4]: MIC = 25 μg/mL | Inhibitory concentration MIC (MIC90) (Aspergillus nidulans): MIC = 2.5-12.5 μg/ml | Inhibitory concentration MIC (MIC90) (Proteus spp): MIC = 6.3 μg/ml | Inhibitory concentration MIC (MIC90) [5]: MIC = 6.3 μg/ml | Inhibitory concentration MIC (MIC90) (Fusarium solani): MIC = 8-16 μM | Inhibitory concentration MIC (MIC90) [6]: MIC = 1.6 μg/ml | Inhibitory concentration MIC (MIC90) [7]: MIC = 25-50 μg/mL | Inhibitory concentration MIC (MIC90) (Cryptococcus gattii): MIC = 64 μg/mL | Inhibitory concentration MIC (MIC90) (Pichia membramfaciens): MIC = 45 μg/ml | Inhibitory concentration MIC (MIC90) (Mycobacterium avium): MIC = 50 μg/ml | Inhibitory concentration MIC (MIC90) (Exophiala dermatitidis): MIC = 2 μg/ml | Inhibitory concentration MIC (MIC90) [8]: MIC = 50 μg/mL | Inhibitory concentration MIC (MIC90) (Trichophyton rubrum): MIC = 13-60 μg/ml | Inhibitory concentration MIC (MIC90) (Torula spp): MIC = 40 μg/ml | Inhibitory concentration MIC (MIC90) [9]: MIC = 12.5-50 μg/mL | Inhibitory concentration MIC (MIC90) (Penicillium digitatum): MIC = 8 μM | Inhibitory concentration MIC (MIC90) [10]: MIC = 1.6 μg/ml | Inhibitory concentration MIC (MIC90) (Trichophyton violaceum): MIC = 40 μg/ml | Inhibitory concentration MIC (MIC90) (Cryptococcus neoformans): MIC = 12.5-50 μg/mL | Inhibitory concentration MIC (MIC90) (Moraxella catarrhalis): MIC = 2 μg/ml | Inhibitory concentration MIC (MIC90) [11]: MIC = 12.5-50 μg/mL | Inhibitory concentration MIC (MIC90) (Phialophora verrucosa): MIC = 5-10 μg/ml | Inhibitory concentration MIC (MIC90) [12]: MIC = 6.3 μg/ml | Inhibitory concentration MIC (MIC90) [13]: MIC = 0.63-1.25 μg/ml | Inhibitory concentration MIC (MIC90) [14]: MIC = 50 μg/ml | Inhibitory concentration MIC (MIC90) (Zygosaccharomyces bailii): MIC = 8 μM | Inhibitory concentration MIC (MIC90) [15]: MIC = 0.63-50 μg/ml | Inhibitory concentration MIC (MIC90) [16]: MIC = 50 μg/mL | Inhibitory concentration MIC (MIC90) (Cryptococcus albidus): MIC = 25 μg/ml | Inhibitory concentration MIC (MIC90) (Trichosporon beigelii): MIC = 40 μg/ml | Inhibitory concentration MIC (MIC90) (Geotrichium spp): MIC = 50 μg/mL | Inhibitory concentration MIC (MIC90) (Penicillium pinophilum): MIC = 45 μg/ml | Inhibitory concentration MIC (MIC90) (Fusarium oxysporum): MIC = 8-16 μM | Inhibitory concentration MIC (MIC90) [17]: MIC = 40 μg/ml | Inhibitory concentration MIC (MIC90) (Dekkera bruxellensis): MIC = 3.75-20 μM | Inhibitory concentration MIC (MIC90) (Streptococcus mutans): MIC = 3.1 μg/ml | Inhibitory concentration MIC (MIC90) (Trichophyton spp): MIC = 6.3-45 μg/ml | Inhibitory concentration MIC (MIC90) (Entrobacter cloacae): MIC = 6.3 μg/ml
